Nc1nnn[nH]1
solubility (mole fraction)
Settings | 283.15 K | 288.15 K | 293.15 K | 298.15 K | 303.15 K | 308.15 K | 313.15 K | 318.15 K | 323.15 K
in 1,4-dioxane | – | 0.0178 | 0.0217 | 0.0267 | 0.0328 | 0.0393 | 0.0463 | 0.0551 | 0.0652
in DMF | 0.0284 | 0.0326 | 0.038 | 0.0437 | 0.0493 | 0.0559 | 0.0628 | 0.0707 | 0.0795
in NMP | 0.0223 | 0.0265 | 0.0312 | 0.0366 | 0.0432 | 0.0502 | 0.0577 | 0.0657 | 0.0741
in acetone | 0.000749 | 0.000832 | 0.000916 | 0.00102 | 0.00112 | 0.00123 | 0.00135 | 0.00149 | 0.00162
in acetonitrile | 0.000193 | 0.000213 | 0.000235 | 0.000256 | 0.00028 | 0.000304 | 0.000329 | 0.000357 | 0.000385
in ethanol | 0.0008 | 0.000896 | 0.00099 | 0.00109 | 0.00121 | 0.00133 | 0.00145 | 0.0016 | 0.00175
in ethyl acetate | 0.000499 | 0.000572 | 0.000649 | 0.000734 | 0.000834 | 0.000943 | 0.00107 | 0.00122 | 0.00139
in isopropanol | 0.000762 | 0.000853 | 0.000946 | 0.00105 | 0.00116 | 0.00128 | 0.00141 | 0.00154 | 0.00169
in methanol | 0.000615 | 0.000681 | 0.000764 | 0.000858 | 0.000954 | 0.00106 | 0.00118 | 0.00131 | 0.00147
in n-butanol | 0.000455 | 0.00051 | 0.000577 | 0.00066 | 0.000755 | 0.000869 | 0.001 | 0.00115 | 0.00131
in n-propanol | 0.000694 | 0.000773 | 0.000868 | 0.000962 | 0.00106 | 0.00117 | 0.00129 | 0.00142 | 0.00157
in toluene | 0.00135 | 0.00156 | 0.00177 | 0.00201 | 0.00229 | 0.0026 | 0.00295 | 0.00335 | 0.00381
